In the assay the target is Induced myeloid leukemia cell differentiation protein Mcl-1 (Homo sapiens) (UniProt Q07820). The experiment in a line: blockers of Bid binding to Mcl-1 – biochemical, TR-FRET, dose response (AID 1418). To be noted: Mcl-1/Bid peptide binding, TR-FRET (europium/Dy647), 2 hr.

Consider 86 molecules from PubChem BioAssay AID1418 (Emory University Molecular Libraries Screening Center, 2008).

The source made the active and inactive calls. No rule for the calls is given here.

Chain of Induced myeloid leukemia cell differentiation protein Mcl-1 (Homo sapiens) (Q07820 whole entry, looked up): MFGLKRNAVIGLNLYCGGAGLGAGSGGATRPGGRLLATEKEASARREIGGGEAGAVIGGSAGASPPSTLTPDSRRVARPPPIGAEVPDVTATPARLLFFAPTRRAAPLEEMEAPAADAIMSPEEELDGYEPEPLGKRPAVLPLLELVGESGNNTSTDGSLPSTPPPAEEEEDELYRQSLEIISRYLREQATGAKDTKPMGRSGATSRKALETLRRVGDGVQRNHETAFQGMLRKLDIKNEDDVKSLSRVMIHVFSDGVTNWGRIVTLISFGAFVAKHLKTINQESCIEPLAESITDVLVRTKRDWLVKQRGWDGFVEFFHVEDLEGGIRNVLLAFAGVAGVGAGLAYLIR

Regarding `O=C(COc1ccccc1)N1CCN(Cc2c[nH]c3ccccc23)CC1`, the IC50 was > 54 µM (inactive).

Take `CCOC(=O)N1CCN(c2nc(C)c3c(n2)CCCC3=O)CC1`: the IC50 is > 54 µM (inactive).

Take `O=C(/C=C/c1cccs1)Nc1scc(-c2ccccc2)c1C(=O)O`: the IC50 is 0.54 µM.

On to `COc1ccc(C(=O)NCc2nnc(SCC(=O)N3CCCCC3)o2)cc1OC`, for which the IC50 is > 54 µM (inactive).

With `Cc1ccc(-c2noc(-c3ccccc3C(=O)N3CCN(C)CC3)n2)cc1`, the IC50 was > 54 µM (inactive).

As for `Cc1ccc2nc(NC(=O)c3cccc(-c4cc5ccccc5oc4=O)c3)sc2c1`, the IC50 was 0.99 µM.

Regarding `COc1ccc(Nc2ncc(C(=O)N3CCN(c4ccc(F)cc4)CC3)c3ccccc23)cc1`, the IC50 was > 54 µM (inactive).

With `CS(=O)(=O)NCc1ccc(C(=O)NCCOc2ccccc2)cc1`, the IC50 was > 54 µM (inactive).

On to `C=CCC1(/C=N/O)CCOC(C)(C)C1` (stereo unspecified), for which the IC50 is > 54 µM (inactive).

Consider `Clc1ccccc1-c1nc2ccccc2[nH]1`, for which the IC50 was > 54 µM (inactive).

For `CCOc1ccc(-c2ccc(/C=C3/C(=N)N4C=CSC4=NC3=O)o2)c([N+](=O)[O-])c1`, the IC50 is 0.86 µM.

Consider `COc1ccccc1C1C(C#N)=C(N)Oc2c1c(-c1ccccc1)nn2-c1ccccc1` (stereo unspecified), for which the IC50 was > 54 µM (inactive).

For the molecule `Cc1cc(N/N=C/c2ccc(O)c(C)c2O)nc(-c2ccccc2O)n1`, the IC50 is 9.06 µM.

`COc1ccc2nc(NC(=O)c3ccc(-c4cccc([N+](=O)[O-])c4)o3)sc2c1`: the 50% inhibitory concentration (IC50) is 0.81 µM.

On to `CCCCCC#CCC#CCC#CCC#CCCCC(=O)O`, for which the IC50 is 1.78 µM.

Take `CCn1c(C)cc(/C=C2/NC(=O)N(CC(=O)Nc3cccc(C)c3)C2=O)c1C`: the IC50 is 3.19 µM.

With `CCOC(=O)c1c(/N=C/C2C(=O)NC(=S)NC2=O)sc(C)c1C`, the IC50 is 2.08 µM.

As for `Cc1cccc(C(=O)Nc2ccnc(-c3cccnc3)n2)c1`, the IC50 was > 54 µM (inactive).

For `O=C(COc1ccc(/C=N/NC(=O)c2cc3ccccc3o2)cc1Br)Nc1ccccc1`, the IC50 was 0.61 µM.

Regarding `C=CCn1cc(/C=N/NC(=O)COc2cccc3cccnc23)c2ccccc21`, the half-maximal inhibitory concentration (IC50) is 3.38 µM.

For the molecule `Cc1nnc(SCc2cc(=O)oc3ccc4ccccc4c23)n1Cc1ccccc1`, the IC50 is > 54 µM (inactive).

With `Cc1ccc(C(=O)OC2=CC(=O)CC(C)(C)C2)cc1`, the IC50 is > 54 µM (inactive).

As to `COc1cccc(Oc2c(C)oc3c(CN4CCCC4)c(O)ccc3c2=O)c1`, the IC50 is > 54 µM (inactive).

On to `C#CCOCCOCCOCCNc1nc(N2CCN(C(=O)[C@H](CCCCN)n3cc(C(N)CC(C)C)nn3)CC2)nc(N2CCN(C(=O)[C@H](CCC(=O)O)n3cc(C(N)[C@H](C)CC)nn3)CC2)n1` (stereo partly specified), for which the IC50 is 22.2 µM.

As to `O=C(CSc1nc2c(cnn2-c2ccc(F)cc2)c(=O)[nH]1)N1CCCc2ccccc21`, the IC50 is > 54 µM (inactive).

For the molecule `CCCN(CCC)CCNC(=O)C1CC(=O)N(c2ccc(OC)cc2)C1c1ccc(OC)cc1` (stereo unspecified), the IC50 was > 54 µM (inactive).

Take `O=C(Nc1ccc2sccc2c1)c1ccc(Cl)s1`: the IC50 is > 54 µM (inactive).

In the case of `NCCCC[C@H](NC(=O)C1CCNCC1)c1nnc(CN)o1`, the IC50 is > 54 µM (inactive).

For `COc1cc(OC)cc(C(=O)Nc2ccc(-c3nc4ccccc4o3)c(O)c2)c1`, the IC50 is 3.61 µM.

Regarding `Cc1ccc(-c2nnc(N3CC(C)OC(C)C3)c3ccccc23)cc1` (stereo unspecified), the IC50 is > 54 µM (inactive).

For the molecule `C=CCn1c(O)c(C(C)=NCC2CCCO2)c(=O)[nH]c1=O` (stereo unspecified), the IC50 was 0.48 µM.

As for `Fc1ccc(NC(=S)N/N=C/c2cccc(Br)c2)c(F)c1`, the IC50 is > 54 µM (inactive).

As to `CN(C1=NC(=O)CS1)c1ccc(O)cc1`, the IC50 was > 54 µM (inactive).

As to `O=C(O)CCCN1C(=O)/C(=C/c2cn(-c3ccccc3)nc2-c2cccs2)SC1=S`, the IC50 is 6.58 µM.

Turning to `O=C(Cc1sc(-c2ccccc2Cl)nc1-c1ccccc1)Nc1ccccc1`, the IC50 is > 54 µM (inactive).

Turning to `O=C(Cn1[nH]c(=O)c2ccccc2c1=O)OCC(=O)N1CCc2ccccc2C1`, the IC50 was > 54 µM (inactive).

`O=C(COC(=O)CCNS(=O)(=O)c1ccc2c(c1)OCCO2)NC1CCCc2ccccc21` (stereo unspecified): the IC50 was > 54 µM (inactive).

For the molecule `CC(C)CN(CC(C)C)C(=S)NC1CCCCC1`, the IC50 was > 54 µM (inactive).

In the case of `O=C(Nc1ccc(S(=O)(=O)Nc2ncccn2)cc1)c1ccc2ncsc2c1`, the 50% inhibitory concentration (IC50) was 0.86 µM.

On to `C#CCOCCOCCOCCNc1nc(N2CCN(C(=O)[C@H](CCCCN)n3cc([C@@H](N)C(C)CC)nn3)CC2)nc(N2CCN(C(=O)[C@H](CCCCN)n3cc([C@@H](N)CO)nn3)CC2)n1` (stereo partly specified), for which the IC50 was 0.63 µM.

`O=C(O)CCN1C(=O)/C(=C/c2cn(-c3ccccc3)nc2-c2cccs2)SC1=S`: the concentration for half-maximal inhibition (IC50) was 6.79 µM.

On to `C=CS(=O)(=O)c1sc(Cl)c(N2CCOCC2)c1[N+](=O)[O-]`, for which the IC50 was 1.77 µM.

In the case of `O=C(c1cccc(Cl)c1)N1CCN(Cc2ccccc2F)CC1`, the IC50 was > 54 µM (inactive).

`COc1cc(/C=C(/C#N)c2nc3ccccc3c(=O)[nH]2)ccc1O`: the concentration for half-maximal inhibition (IC50) is 1.15 µM.

For `CCc1cccc(CC)c1NC(=S)N1CCn2cccc2C1c1cccnc1` (stereo unspecified), the IC50 was > 54 µM (inactive).

Consider `COc1ccc(CCNc2nc(-c3sc(C)nc3C)cs2)cc1OC`, for which the IC50 result is “inactive”.

Regarding `Cc1nc(SCC(=O)Nc2cc(Cl)ccc2[N+](=O)[O-])nc(C)c1C`, the IC50 was > 54 µM (inactive).

For the molecule `COc1cccc2c(=O)c(C/C=C(/C)Cl)c(C)[nH]c12`, the IC50 is > 54 µM (inactive).

Consider `O=C(COc1ccc(S(=O)(=O)N2CCCC2)cc1Cl)NC1CC1`, for which the IC50 is > 54 µM (inactive).

In the case of `CCOc1ccc(C(Nc2cccnc2)c2cc(Cl)c3cccnc3c2O)cc1` (stereo unspecified), the 50% inhibitory concentration (IC50) was 0.51 µM.

On to `O=C(NC1CCCCC1)C(c1ccc2ncccc2c1)N(Cc1ccccc1)C(=O)c1ccc2c(c1)OCCO2` (stereo unspecified), for which the IC50 was > 54 µM (inactive).

As for `COc1ccc(CCNc2nc(-c3cccnc3)cs2)cc1OC`, the IC50 is > 54 µM (inactive).

Regarding `COc1ccc(NC(C)C(=O)Nc2ccc(C#N)cc2)cc1Cl` (stereo unspecified), the IC50 was > 54 µM (inactive).

With `COc1cc(/C=C2\SC(=O)N(Cc3ccc(Cl)cc3)C2=O)cc([N+](=O)[O-])c1O`, the IC50 is 16.9 µM.

As to `O=C(O)c1ccc(N2C(=O)/C(=C/c3ccc(-c4ccc([N+](=O)[O-])cc4)o3)C=C2c2ccccc2)cc1`, the IC50 was 1.42 µM.

Consider `O=C(/C=C\Nc1ccc(S(=O)(=O)Nc2ncccn2)cc1)c1cccc2ccccc12`, for which the IC50 is > 54 µM (inactive).

Consider `Cc1ccc(S(=O)(=O)N2CCOCC2)cc1C(=O)N1C(=O)c2cccc(N)c2C1=O`, for which the IC50 was > 54 µM (inactive).

`CC(=O)Nc1ccc(S(=O)(=O)NCc2ccccn2)cc1`: the IC50 is > 54 µM (inactive).

Regarding `COc1cccc(OC)c1C(=O)N1CCN(Cc2ccncc2)CC1`, the IC50 is > 54 µM (inactive).

Regarding `COc1ccc(C2(C)NC(=O)N(CC(=O)NCCC3=CCCCC3)C2=O)cc1OC` (stereo unspecified), the IC50 was > 54 µM (inactive).

`COc1ccccc1C1C2=C(N=c3s/c(=C/c4cccc(OCC(=O)O)c4)c(=O)n31)c1ccccc1CC2` (stereo unspecified): the IC50 is 11.2 µM.

On to `O=C(COc1ccc2c(c1)CCC2)N1CCc2ccccc21`, for which the IC50 was > 54 µM (inactive).

For `CCOc1ccc(N2C(=O)c3cccnc3C2Nc2ccc(F)cc2)cc1` (stereo unspecified), the IC50 was > 54 µM (inactive).

Regarding `CC(C)(C)CC(C)(C)NC(=S)NC1CCN(Cc2ccccc2)CC1`, the IC50 was > 54 µM (inactive).

Regarding `Cc1nc(NC(=O)c2ccco2)sc1-c1csc(Nc2ccc(Cl)cc2Cl)n1`, the IC50 was 0.77 µM.

Turning to `C#CCOCCOCCOCCNc1nc(N2CCN(C(=O)[C@H](Cc3cc4ccccc4[nH]3)n3cc([C@@H](N)CC(C)C)nn3)CC2)nc(N2CCN(C(=O)[C@H](Cc3cc4ccccc4[nH]3)n3cc([C@@H](N)CC(C)C)nn3)CC2)n1`, the IC50 was 24.2 µM.

Consider `O=C(/C=C/c1cccc([N+](=O)[O-])c1)Nc1ccc(NC(=O)c2cccs2)cc1`, for which the concentration for half-maximal inhibition (IC50) was 10.6 µM.

As for `CCN(CC)c1ccc(CNc2nc3ccccc3n2C)cc1`, the IC50 was > 54 µM (inactive).

For the molecule `COC(=O)c1ccccc1S(=O)(=O)N1CCn2cccc2C1C` (stereo unspecified), the IC50 was > 54 µM (inactive).

As to `CCSc1nnc(NC(=O)C(Cc2ccccc2)n2cccc2)s1` (stereo unspecified), the IC50 is > 54 µM (inactive).

With `COc1cccc(C(=O)Nc2ccc3nc(N4CCN(c5ncccn5)CC4)cc(C)c3c2)c1OC`, the half-inhibitory concentration (IC50) was 0.53 µM.

Consider `O=[N+]([O-])c1cc(Cl)cc(/C=N/NC(=S)Nc2cc(S(=O)(=O)N3CCOCC3)ccc2Cl)c1O`, for which the IC50 is 7.3 µM.

With `CCOC(=O)c1c(C)oc2c1c(C(c1cccnc1)N1CCOCC1)c(O)c1ccccc12` (stereo unspecified), the IC50 is 0.85 µM.

Turning to `CCCOc1ccc(C(=O)NCC(c2ccco2)N(C)C)cc1OC` (stereo unspecified), the IC50 is > 54 µM (inactive).

`COc1cc2cc3c(N)c(C(=O)Nc4sc(C)c(C)c4C#N)sc3nc2cc1OC`: the IC50 is 0.97 µM.

On to `CC(C)(C)C(O)C(Oc1ccc(Cl)cc1)n1cncn1` (stereo unspecified), for which the IC50 was > 54 µM (inactive).

`Nc1c(C(=O)NCCc2ccccc2)c2nc3ccccc3nc2n1CCN1CCOCC1`: the IC50 was > 54 µM (inactive).

In the case of `O=C(O)CCCCCN1C(=O)/C(=C\c2ccc(-c3ccc(Cl)cc3)o2)SC1=S`, the IC50 was 16.5 µM.

Consider `O=C(Nc1cnn(C23CC4CC(CC(C4)C2)C3)c1)c1cnn2c(C(F)(F)F)cc(-c3ccco3)nc12`, for which the IC50 is 1.38 µM.

As for `CC(C)C1(C)N=C(c2ncccc2C(=O)O)NC1=O` (stereo unspecified), the IC50 was > 54 µM (inactive).

On to `CCCOP(=O)(OCCC)C(NC(=O)c1ccccc1)=C(Cl)Cl`, for which the IC50 was 0.53 µM.

Consider `O=C(CCS(=O)(=O)c1ccc(Br)s1)NC1CCCCCC1`, for which the IC50 is > 54 µM (inactive).

In the case of `CCOc1ccc2nc(NC(=O)c3cccc(-c4cc5ccccc5oc4=O)c3)sc2c1`, the IC50 was 1.94 µM.

As for `Cc1c(NC(=O)COC(=O)c2cc(-c3ccc(-c4ccccc4)cc3)nc3ccccc23)c(=O)n(-c2ccccc2)n1C`, the IC50 is 0.58 µM.

As for `NC(=O)N1CCN(C(=O)c2ccco2)CC1`, the IC50 is > 54 µM (inactive).

In the case of `O=C(O)c1[nH]c2ccccc2c1C=NCc1ccccc1Cl`, the IC50 is > 54 µM (inactive).
